Test results as given in patent publication US10526327B2, “Histone demethylase inhibitors” (CELGENE QUANTICEL RESEARCH, INC., priority 2013, dated 2020).
pIC50: −log10 of the molar value.

Target: T1, JMJD2C (Homo sapiens, UniProt Q9H3R0)
T1 construct: purchased BPS Bioscience 50105
T1 sequence (Q9H3R0 2-372): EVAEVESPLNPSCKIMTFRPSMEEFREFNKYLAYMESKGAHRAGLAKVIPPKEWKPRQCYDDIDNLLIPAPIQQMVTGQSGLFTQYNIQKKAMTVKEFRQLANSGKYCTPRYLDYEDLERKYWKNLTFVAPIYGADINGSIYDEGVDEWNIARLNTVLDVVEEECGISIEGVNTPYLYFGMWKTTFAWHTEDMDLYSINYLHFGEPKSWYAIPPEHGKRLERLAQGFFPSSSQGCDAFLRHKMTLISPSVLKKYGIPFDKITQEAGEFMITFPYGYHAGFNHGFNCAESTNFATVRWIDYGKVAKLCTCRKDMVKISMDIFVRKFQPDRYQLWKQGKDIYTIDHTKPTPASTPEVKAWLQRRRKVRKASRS
Assay: JMJD2C in vitro enzyme inhibition assay (TR-FRET)
Type: biochemical
Source text: This assay determines the ability of a test compound to inhibit Jarid1A, Jarid1B, and JMJD2C demethylase activity. Baculovirus expressed Jarid1A (GenBank Accession #NM_001042603, AA1-1090) was purchased from BPS Bioscience (Cat#50110). Baculovirus expressed Jarid1B (GenBank Accession #NM_006618, AA 2-751) was purchased from BPS Bioscience (Cat #50121) or custom made by MolecularThroughput. Baculovirus expressed JMJD2C (GenBank Accession #BC143571, AA 2-372) was purchased from BPS Bioscience (Cat#50105).
The ability of test compounds to inhibit the activity of JMJD2C was determined in 384-well plate format under the following reaction conditions: 0.3 nM JMJD2C, 300 nM H3K9me3-biotin labeled peptide (Anaspec cat #64360), 2 μM alpha-ketoglutaric acid in assay buffer of 50 mM HEPES, pH7.3, 0.005% Brij35, 0.5 mM TCEP, 0.2 mg/ml BSA, 50 μM sodium L-ascorbate, and 2 μM ammonium iron(II) sulfate. Reaction product was determined quantitatively by TR-FRET after the addition of detection reagent Phycolink Streptavidin-allophycocyanin (Prozyme) and Europium-anti-di-methylated histone H3 lysine 9 (H3K9me2) antibody (PerkinElmer) in the presence of 5 mM EDTA in LANCE detection buffer (PerkinElmer) at a final concentration of 50 nM and 1 nM, respectively.
The assay reaction was initiated by the following: 2 μl of the mixture of 900 nM H3K9me3-biotin labeled peptide and 6 μM alpha-ketoglutaric acid with 2 μl of 11-point serial diluted inhibitor in 3% DMSO were added to each well of the plate, followed by the addition of 2 μl of 0.9 nM JMJD2C to initiate the reaction. The reaction mixture was incubated at room temperature for 30 minutes, and terminated by the addition of 6 μl of 5 mM EDTA in LANCE detection buffer containing 100 nM Phycolink Streptavidin-allophycocyanin and 2 nM Europium-anti-H3K9me2 antibody. Plates were read by EnVisionMultilabel Reader in TR-FRET mode (excitation at 320 nm, emission at 615 nm and 665 nm) after 1 hour incubation at room temperature. A ratio was calculated (665/615) for each well and fitted to determine inhibition constant (IC50).

SMILES: OCCOc1nc(O)c2ccncc2n1 [Example 3, 2-(2-hydroxyethoxy)pyrido[3,4-d]pyrimidin-4-ol]
- pIC50: 6.00 to 7.00

SMILES: Oc1nc(OCc2ccccc2)nc2cnccc12 [Example 4, 2-phenylmethoxypyrido[3,4-d]pyrimidin-4-ol]
- pIC50: 6.00 to 7.00

SMILES: Oc1nc(OCC2CC2)nc2cnccc12 [Example 5, 2-(cyclopropylmethoxy)-3H-pyrido[3,4-d]pyrimidin-4-one]
- pIC50: 6.00 to 7.00

SMILES: Oc1nc(OC2CCCC2)nc2cnccc12 [Example 6, 2-cyclopentyloxy-3H-pyrido[3,4-d]pyrimidin-4-one]
- pIC50: 6.00 to 7.00

SMILES: CCCOc1nc(O)c2ccncc2n1 [Example 7, 2-propoxy-3H-pyrido[3,4-d]pyrimidin-4-one]
- pIC50: 6.00 to 7.00

SMILES: COc1nc(O)c2ccncc2n1 [Example 8, 2-methoxypyrido[3,4-d]pyrimidin-4-ol]
- pIC50: 6.00 to 7.00

SMILES: CCC(C)Oc1nc(O)c2ccncc2n1 (stereo not drawn) [Example 9, 2-butan-2-yloxy-3H-pyrido[3,4-d]pyrimidin-4-one]
- pIC50: ≥ 7.00

SMILES: Oc1nc(OCCOc2ccccc2)nc2cnccc12 [Example 10, 2-(2-phenoxyethoxy)-3H-pyrido[3,4-d]pyrimidin-4-one]
- pIC50: 6.00 to 7.00

SMILES: Oc1nc(OCC2CCC2)nc2cnccc12 [Example 11, 2-(cyclobutylmethoxy)-3H-pyrido[3,4-d]pyrimidin-4-one]
- pIC50: 6.00 to 7.00

SMILES: Oc1nc(OCC(F)(F)F)nc2cnccc12 [Example 12, 2-(2,2,2-trifluoroethoxy)pyrido[3,4-d]pyrimidin-4-ol]
- pIC50: 6.00 to 7.00

SMILES: CC(=O)Nc1ccc(Oc2nc(O)c3ccncc3n2)cc1 [Example 35, N-[4-(4-hydroxypyrido[3,4-d]pyrimidin-2-yl)oxyphenyl]acetamide]
- pIC50: 6.00 to 7.00

SMILES: CC(C)(C)OC(=O)Nc1cccc(Oc2nc(O)c3ccncc3n2)c1 [Example 36, tert-butyl N-[3-(4-hydroxypyrido[3,4-d]pyrimidin-2-yl)oxyphenyl]carbamate]
- pIC50: 6.00 to 7.00

SMILES: Oc1nc(Oc2ccc(F)c(F)c2)nc2cnccc12 [Example 37, 2-(3,4-difluorophenoxy)pyrido[3,4-d]pyrimidin-4-ol]
- pIC50: ≥ 7.00

SMILES: COc1ccc(Oc2nc(O)c3ccncc3n2)cc1OC [Example 38, 2-(3,4-dimethoxyphenoxy)pyrido[3,4-d]pyrimidin-4-ol]
- pIC50: 6.00 to 7.00

SMILES: CC(C)c1cccc(Oc2nc(O)c3ccncc3n2)c1 [Example 39, 2-(3-propan-2-ylphenoxy)pyrido[3,4-d]pyrimidin-4-ol]
- pIC50: 6.00 to 7.00

SMILES: Oc1nc(Oc2cccc(F)c2)nc2cnccc12 [Example 40, 2-(3-fluorophenoxy)pyrido[3,4-d]pyrimidin-4-ol]
- pIC50: ≥ 7.00

SMILES: Oc1nc(Oc2cccc(Cl)c2)nc2cnccc12 [Example 41, 2-(3-chlorophenoxy)pyrido[3,4-d]pyrimidin-4-ol]
- pIC50: 6.00 to 7.00

SMILES: Oc1nc(Oc2cccc(F)c2F)nc2cnccc12 [Example 42, 2-(2,3-difluorophenoxy)pyrido[3,4-d]pyrimidin-4-ol]
- pIC50: 6.00 to 7.00

SMILES: COc1c(F)cc(Oc2nc(O)c3ccncc3n2)cc1F [Example 43, 2-(3,5-difluoro-4-methoxyphenoxy)pyrido[3,4-d]pyrimidin-4-ol]
- pIC50: 6.00 to 7.00

SMILES: COc1cccc(Oc2nc(O)c3ccncc3n2)c1 [Example 44, 2-(3-methoxyphenoxy)pyrido[3,4-d]pyrimidin-4-ol]
- pIC50: 6.00 to 7.00

SMILES: CCOc1c(F)cc(Oc2nc(O)c3ccncc3n2)cc1F [Example 45, 2-(4-ethoxy-3,5-difluorophenoxy)pyrido[3,4-d]pyrimidin-4-ol]
- pIC50: 6.00 to 7.00

SMILES: Oc1nc(Oc2ccccc2F)nc2cnccc12 [Example 46, 2-(2-fluorophenoxy)pyrido[3,4-d]pyrimidin-4-ol]
- pIC50: 6.00 to 7.00

SMILES: Oc1nc(Oc2ccc(F)cc2)nc2cnccc12 [Example 47, 2-(4-fluorophenoxy)pyrido[3,4-d]pyrimidin-4-ol]
- pIC50: 6.00 to 7.00

SMILES: COc1ccc(Oc2nc(O)c3ccncc3n2)cc1 [Example 48, 2-(4-methoxyphenoxy)pyrido[3,4-d]pyrimidin-4-ol]
- pIC50: ≥ 7.00

SMILES: Oc1nc(Oc2ccc(Cl)cc2)nc2cnccc12 [Example 49, 2-(4-chlorophenoxy)pyrido[3,4-d]pyrimidin-4-ol]
- pIC50: ≥ 7.00

SMILES: CN(C)c1cccc(Oc2nc(O)c3ccncc3n2)c1 [Example 50, 2-[3-(dimethylamino)phenoxy]pyrido[3,4-d]pyrimidin-4-ol]
- pIC50: 6.00 to 7.00

SMILES: Oc1nc(Oc2cccc(C(F)(F)F)c2)nc2cnccc12 [Example 52, 2-[3-(trifluoromethyl)phenoxy]pyrido[3,4-d]pyrimidin-4-ol]
- pIC50: 6.00 to 7.00

SMILES: COc1ccc(Oc2nc(O)c3ccncc3n2)cc1F [Example 53, 2-(3-fluoro-4-methoxyphenoxy)pyrido[3,4-d]pyrimidin-4-ol]
- pIC50: 6.00 to 7.00

SMILES: CCCn1cc(Oc2nc(O)c3ccncc3n2)cn1 [Example 54, 2-(1-propylpyrazol-4-yl)oxypyrido[3,4-d]pyrimidin-4-ol]
- pIC50: 6.00 to 7.00

SMILES: CC(C)CCn1cc(Oc2nc(O)c3ccncc3n2)cn1 [Example 55, 2-{[1-(3-methylbutyl)pyrazol-4-yl]oxy}pyrido[3,4-d]pyrimidin-4-ol]
- pIC50: ≥ 7.00

SMILES: Oc1nc(Oc2cnn(C3CCCC3)c2)nc2cnccc12 [Example 56, 2-[(1-cyclopentylpyrazol-4-yl)oxy]pyrido[3,4-d]pyrimidin-4-ol]
- pIC50: ≥ 7.00

SMILES: CCc1cccc(Oc2nc(O)c3ccncc3n2)c1 [Example 57, 2-(3-ethylphenoxy)pyrido[3,4-d]pyrimidin-4-ol]
- pIC50: ≥ 7.00

SMILES: CCCc1cccc(Oc2nc(O)c3ccncc3n2)c1 [Example 58, 2-(3-propylphenoxy)pyrido[3,4-d]pyrimidin-4-ol]
- pIC50: 6.00 to 7.00

SMILES: CN(C)c1ccc(Oc2nc(O)c3ccncc3n2)cc1 [Example 59, 2-[4-(dimethylamino)phenoxy]pyrido[3,4-d]pyrimidin-4-ol]
- pIC50: 6.00 to 7.00

SMILES: O=C(c1cc(F)cc(Oc2nc(O)c3ccncc3n2)c1)N1CCOCC1 [Example 60]
- pIC50: 6.00 to 7.00

SMILES: COCCn1ncc2ccc(Oc3nc(O)c4ccncc4n3)cc21 [Example 61, 2-{[1-(2-methoxyethyl)-1H-indazol-6-yl]oxy}pyrido[3,4-d]pyrimidin-4-ol]
- pIC50: 6.00 to 7.00

SMILES: CCn1cc(Oc2nc(O)c3ccncc3n2)cn1 [Example 62, 2-[(1-ethyl-1H-pyrazol-4-yl)oxy]pyrido[3,4-d]pyrimidin-4-ol]
- pIC50: ≥ 7.00

SMILES: CC(C)n1cc(Oc2nc3cnccc3c(=O)[nH]2)cn1 [Example 63, 2-{[1-(propan-2-yl)-1H-pyrazol-4-yl]oxy}pyrido[3,4-d]pyrimidin-4-ol]
- pIC50: 6.00 to 7.00

SMILES: COCCn1cc(Oc2nc(O)c3ccncc3n2)cn1 [Example 64, 2-{[1-(2-methoxyethyl)-1H-pyrazol-4-yl]oxy}pyrido[3,4-d]pyrimidin-4-ol]
- pIC50: 6.00 to 7.00

SMILES: COCCCn1cc(Oc2nc(O)c3ccncc3n2)cn1 [Example 65, 2-{[1-(3-methoxypropyl)-1H-pyrazol-4-yl]oxy}pyrido[3,4-d]pyrimidin-4-ol]
- pIC50: 6.00 to 7.00

SMILES: Oc1nc(Oc2cnn(Cc3ccccc3)c2)nc2cnccc12 [Example 66, 2-[(1-benzyl-1H-pyrazol-4-yl)oxy]pyrido[3,4-d]pyrimidin-4-ol]
- pIC50: ≥ 7.00

SMILES: Oc1nc(Oc2cnn(C3CCOCC3)c2)nc2cnccc12 [Example 67, 2-{[1-(tetrahydro-2H-pyran-4-yl)-1H-pyrazol-4-yl]oxy}pyrido[3,4-d]pyrimidin-4-ol]
- pIC50: 6.00 to 7.00
